# Tests used:
# MCF-7 cells [1] = assay: Cell proliferation experiments, MCF-7 cells (cell numbers after 8 days); assay type: cell-based, human; conditions: for antiproliferative effect on MCF-7 cells (dose effect): HPLC fractions or ceramide compounds alone
# Experimental: MCF7-E3 human breast cancer estrogen-sensitive cells were provided by Dr. D. Desaulniers of Health Canada, Ottawa. Cells were routinely propagated as a monolayer culture in Dulbcco's Modified Eale Medium (DMEM) supplemented with 10% heat-inactivated fetal bovine serum (FBS), in 75-cm^2 plastic dish at 37° C. in a humidified atmosphere with 5% CO2, and passage 3-4 days a time. A normal human mammary epithelial cell line was provided by Dr. M. Stampfer of UC Livermore Labs. Cells were routinely propagated as a monolayer culture in Mammary Epithelial Growth Media (MEGM, Clonetics, San Diego) supplemented with 10% heat-inactivated fetal bovine serum (FBS), in 75-cm^2 plastic dish at 37° C. in a humidified atmosphere with 5% CO2, and passage every week. For the experiments, both cells were harvest from the dish using 0.25% trypsin-EDTA solution.
# Four kefir products (K1-K4) collected at various stages of kefir production at Liberty Brand Products, Inc. (Montreal, Canada) were used in this study. The large-scale production of kefir involves a two-step fermentation process. The first step is to prepare the cultures by incubating milk with kefir grains (2-10%) (K1) and fermented for 24 hrs. The grains are then removed by filtration and the resulting mother culture (K2) is added to pasteurized milk (K3), which is further fermented for 12 hrs and this final product (K4) is packaged for the consumer market. A pasteurized milk sample (M1) and two yogurt products; mixture of yogurt bacteria, pasteurized milk and milk powder (Y1) and the final yogurt product after 12 hrs of fermentation (Y2) were included for comparison. The yeast and bacteria in the samples were removed by centrifugation and filtration. About 35 ml each of the seven samples was centrifuged (32,000×g, 60 min, 4° C.) and the supernatant was filtered through a 0.45 μm Millipore filter followed by a 0.2 μm Millipore filter (Millipore Corporation, Bedford, USA). Extracts from two separate batches of kefir and yogurt were used.
# Cells previously harvested were seeded in 24-well plates; 10,000 cells for MCF-7 per well in DMEM supplemented with 10% FBS and 5,000 cells for HMEC per well in MEGM supplemented with 10% FBS. The cells were allowed to attach for 24 hours. […] Cells were incubated at 37° C. in a humidified atmosphere with 5% CO2 for 8 days and the cell numbers in each well were counted using a Coulter Counter (Coulter Counter Corporation, USA). […]
# The cell numbers expressed as percentage of control from different treatments and dose were compared using two-way ANOVA. When the interaction between treatments and dose was also significant the difference between treatment groups was determined by Tukey's HSD multiple comparison test. […]
# MCF-7 cells [2] = conditions: 1 μM; cited from earlier work
compound,measurement,setting,value
CCCCCCCCCCCCC/C=C/[C@@H](O)[C@H](CO)NC(=O)CCCCC [C6 ceramide],antiproliferative effect on MCF-7 cells (dose effect),MCF-7 cells [1],strong dose dependent antiproliferative effect
same,levels of angiogenesis stimulators VEGF and cathepsin D,MCF-7 cells [2],below 50 % of the control
CC/C(=C(\c1ccccc1)c1ccc(OCCN(C)C)cc1)c1ccccc1 [Tamoxifen],dosage showing antiproliferative effect on MCF-7 cells,MCF-7 cells [1],above 0.2 μM/L
ceramide 1-phosphate,antiproliferative effect on MCF-7 cells (dose effect),MCF-7 cells [1],did not
ceramide I,antiproliferative effect on MCF-7 cells (dose effect),MCF-7 cells [1],strong dose dependent antiproliferative effect

# — patent publication US20050281904A1, “Kefir extract as an anti-cancer agent” (McGill University, priority 2000, published 2005)
